{"source": "patent US20060186374A1", "about": "“Hydrophobic propellant gas mixtures for producing insulating foams” (priority 2003, published 2006)", "origin": "cited, not measured here", "data": [{"conditions": "octanol/water, decadic logarithm", "values": [{"smiles": "FC(F)CC(F)(F)F", "note": "[R245fa, 1,1,1,3,3-pentafluoropropane]", "log PO/W": 1.35}, {"smiles": "CC(C)C", "note": "[i-butane]", "log PO/W": 2.8}, {"smiles": "FC(C(F)(F)F)C(F)(F)F", "note": "[R227ea, 1,1,1,2,3,3,3-heptafluoropropane]", "log PO/W": 2.5}, {"smiles": "CC(F)F", "note": "[R152a, 1,1-difluoroethane]", "log PO/W": 0.75}, {"smiles": "FCC(F)(F)F", "note": "[R134a, 1,1,1,2-tetrafluoroethane]", "log PO/W": 1.06}, {"smiles": "CCC", "note": "[Propane, propane]", "log PO/W": 2.3}, {"smiles": "COC", "note": "[DME, dimethyl ether]", "log PO/W": 0.1}, {"smiles": "CC(F)(F)CC(F)(F)F", "note": "[R365mfc, 1,1,1,3,3-pentafluorobutane]", "log PO/W": 1.6}]}]}
